Measurements: patent US9290777B2, “Putative cytokinin receptor and methods for use thereof” (NATIONAL UNIVERSITY OF SINGAPORE, priority 2007, dated 2016)
“Also recorded” adds a separate entry of the source.

Test system: KNAT1
Test: qRT-PCR of cytokinin responsive gene after BA pulse, fold change vs untreated wild type
Format: cell-based, Arabidopsis thaliana
Method: For quantitative real-time PCR (qRT-PCR) analysis of cytokinin-inducible gene expression, seeds were germinated on MS medium with 3% (w/v) sucrose and grown for 6 days. Cytokinin treatment was carried out by incubating seedlings in the same MS+sucrose liquid medium (no agar) supplemented with 0, 0.01, 0.1, 1 or 5 μM [solubilized in 0.1% dimethylsulfoxide (DMSO) and diluted with the MS medium] for 5 min, 15 min, 30 min or 1 h. The control seedlings were incubated with DMSO (0.1%, the concentration used to dissolve cytokinins for the treatment) for the corresponding durations and used for expression analysis. Before RNA preparation, WT, OE and AS seedlings were pooled and stored in RNAlater solution (Qiagen, Valencia, Calif.). Total RNA was extracted using the Rneasy Plant Mini Kit (Qiagen). SYBRgreen RT-PCR reagents (Applied Biosystems) were used to synthesize double-stranded cDNA. The number of transcripts present in biological replicates each of WT, OE and AS seedlings, with or without BA and DMSO, was determined from three independent replicates. Fold induction of the transcripts was calculated according to the manufacturer's instructions (ABI Prism 7700 Sequence Detection System, User Bulletin #2).

c1ccc(CNc2ncnc3nc[nH]c23)cc1 [benzyladenine]
KNAT1 transcripts in OE lines compared to untreated wild type (5 μM BA, 1 h, OE lines (e.g. OE1, OE12), listed as BA): less than a two fold change; also recorded: no significant difference | KNAT1 fold change (BA 0.01 μM, 5 min, AS1, ↑ up): 8.12↑ | KNAT1 fold change (BA 0.01 μM, 5 min, AS8, ↑ up): 9.1↑ | KNAT1 fold change (BA 0.01 μM, 5 min, AS21, ↑ up): 10.01↑ | KNAT1 fold change (BA 0.01 μM, 5 min, OE1, ↓ down): 4.01↓ | KNAT1 fold change (BA 0.01 μM, 5 min, OE12, ↓ down): 4.87↓ | KNAT1 fold change (BA 0.01 μM, 5 min, OE18, ↓ down): 6.56↓ | KNAT1 fold change (BA 0.01 μM, 5 min, Wild type, ↑ up): 2.13↑ | KNAT1 fold change (BA 0.01 μM, 15 min, AS1, ↑ up): 8.57↑ | KNAT1 fold change (BA 0.01 μM, 15 min, AS8, ↑ up): 9.21↑ | KNAT1 fold change (BA 0.01 μM, 15 min, AS21, ↑ up): 10.39↑ | KNAT1 fold change (BA 0.01 μM, 15 min, OE1, ↓ down): 3.86↓ | KNAT1 fold change (BA 0.01 μM, 15 min, OE12, ↓ down): 4.56↓ | KNAT1 fold change (BA 0.01 μM, 15 min, OE18, ↓ down): 6.32↓ | KNAT1 fold change (BA 0.01 μM, 15 min, Wild type, ↑ up): 2.67↑ | KNAT1 fold change (BA 0.01 μM, 30 min, AS1, ↑ up): 8.98↑ | KNAT1 fold change (BA 0.01 μM, 30 min, AS8, ↑ up): 9.86↑ | KNAT1 fold change (BA 0.01 μM, 30 min, AS21, ↑ up): 10.53↑ | KNAT1 fold change (BA 0.01 μM, 30 min, OE1, ↓ down): 3.41↓ | KNAT1 fold change (BA 0.01 μM, 30 min, OE12, ↓ down): 4.13↓ | KNAT1 fold change (BA 0.01 μM, 30 min, OE18, ↓ down): 6.13↓ | KNAT1 fold change (BA 0.01 μM, 30 min, Wild type, ↑ up): 2.98↑ | KNAT1 fold change (BA 0.01 μM, 1 h, AS1, ↑ up): 9.20↑ | KNAT1 fold change (BA 0.01 μM, 1 h, AS8, ↑ up): 9.98↑ | KNAT1 fold change (BA 0.01 μM, 1 h, AS21, ↑ up): 11.99↑ | KNAT1 fold change (BA 0.01 μM, 1 h, OE1, ↓ down): 3.01↓ | KNAT1 fold change (BA 0.01 μM, 1 h, OE12, ↓ down): 3.06↓ | KNAT1 fold change (BA 0.01 μM, 1 h, OE18, ↓ down): 5.98↓ | KNAT1 fold change (BA 0.01 μM, 1 h, Wild type, ↑ up): 3.15↑ | KNAT1 fold change (BA 0.1 μM, 5 min, AS1, ↑ up): 9.14↑ | KNAT1 fold change (BA 0.1 μM, 5 min, AS8, ↑ up): 10.12↑ | KNAT1 fold change (BA 0.1 μM, 5 min, AS21, ↑ up): 11.11↑ | KNAT1 fold change (BA 0.1 μM, 5 min, OE1, ↓ down): 3.56↓ | KNAT1 fold change (BA 0.1 μM, 5 min, OE12, ↓ down): 3.91↓ | KNAT1 fold change (BA 0.1 μM, 5 min, OE18, ↓ down): 5.89↓ | KNAT1 fold change (BA 0.1 μM, 5 min, Wild type, ↑ up): 3.36↑ | KNAT1 fold change (BA 0.1 μM, 15 min, AS1, ↑ up): 9.39↑ | KNAT1 fold change (BA 0.1 μM, 15 min, AS8, ↑ up): 10.32↑ | KNAT1 fold change (BA 0.1 μM, 15 min, AS21, ↑ up): 11.26↑ | KNAT1 fold change (BA 0.1 μM, 15 min, OE1, ↓ down): 3.24↓ | KNAT1 fold change (BA 0.1 μM, 15 min, OE12, ↓ down): 3.71↓ | KNAT1 fold change (BA 0.1 μM, 15 min, OE18, ↓ down): 5.72↓ | KNAT1 fold change (BA 0.1 μM, 15 min, Wild type, ↑ up): 3.58↑ | KNAT1 fold change (BA 0.1 μM, 30 min, AS1, ↑ up): 9.69↑ | KNAT1 fold change (BA 0.1 μM, 30 min, AS8, ↑ up): 10.57↑ | KNAT1 fold change (BA 0.1 μM, 30 min, AS21, ↑ up): 11.48↑ | KNAT1 fold change (BA 0.1 μM, 30 min, OE1, ↓ down): 3.12↓ | KNAT1 fold change (BA 0.1 μM, 30 min, OE12, ↓ down): 3.59↓ | KNAT1 fold change (BA 0.1 μM, 30 min, OE18, ↓ down): 5.36↓ | KNAT1 fold change (BA 0.1 μM, 30 min, Wild type, ↑ up): 3.89↑ | KNAT1 fold change (BA 0.1 μM, 1 h, AS1, ↑ up): 9.98↑ | KNAT1 fold change (BA 0.1 μM, 1 h, AS8, ↑ up): 10.99↑ | KNAT1 fold change (BA 0.1 μM, 1 h, AS21, ↑ up): 11.83↑ | KNAT1 fold change (BA 0.1 μM, 1 h, OE1, ↓ down): 2.96↓ | KNAT1 fold change (BA 0.1 μM, 1 h, OE12, ↓ down): 3.21↓ | KNAT1 fold change (BA 0.1 μM, 1 h, OE18, ↓ down): 5.01↓ | KNAT1 fold change (BA 0.1 μM, 1 h, Wild type, ↑ up): 3.99↑ | KNAT1 fold change (BA 1.0 μM, 5 min, AS1, ↑ up): 10.43↑ | KNAT1 fold change (BA 1.0 μM, 5 min, AS8, ↑ up): 11.01↑ | KNAT1 fold change (BA 1.0 μM, 5 min, AS21, ↑ up): 11.93↑ | KNAT1 fold change (BA 1.0 μM, 5 min, OE1, ↓ down): 2.76↓ | KNAT1 fold change (BA 1.0 μM, 5 min, OE12, ↓ down): 3.19↓ | KNAT1 fold change (BA 1.0 μM, 5 min, OE18, ↓ down): 4.36↓ | KNAT1 fold change (BA 1.0 μM, 5 min, Wild type, ↑ up): 4.1↑ | KNAT1 fold change (BA 1.0 μM, 15 min, AS1, ↑ up): 10.68↑ | KNAT1 fold change (BA 1.0 μM, 15 min, AS8, ↑ up): 11.43↑ | KNAT1 fold change (BA 1.0 μM, 15 min, AS21, ↑ up): 12.02↑ | KNAT1 fold change (BA 1.0 μM, 15 min, OE1, ↓ down): 2.51↓ | KNAT1 fold change (BA 1.0 μM, 15 min, OE12, ↓ down): 3.01↓ | KNAT1 fold change (BA 1.0 μM, 15 min, OE18, ↓ down): 4.21↓ | KNAT1 fold change (BA 1.0 μM, 15 min, Wild type, ↑ up): 4.31↑ | KNAT1 fold change (BA 1.0 μM, 30 min, AS1, ↑ up): 10.73↑ | KNAT1 fold change (BA 1.0 μM, 30 min, AS8, ↑ up): 11.69↑ | KNAT1 fold change (BA 1.0 μM, 30 min, AS21, ↑ up): 12.35↑ | KNAT1 fold change (BA 1.0 μM, 30 min, OE1, ↓ down): 2.29↓ | KNAT1 fold change (BA 1.0 μM, 30 min, OE12, ↓ down): 2.89↓ | KNAT1 fold change (BA 1.0 μM, 30 min, OE18, ↓ down): 4.01↓ | KNAT1 fold change (BA 1.0 μM, 30 min, Wild type, ↑ up): 4.59↑ | KNAT1 fold change (BA 1.0 μM, 1 h, AS1, ↑ up): 11.01↑ | KNAT1 fold change (BA 1.0 μM, 1 h, AS8, ↑ up): 11.93↑ | KNAT1 fold change (BA 1.0 μM, 1 h, AS21, ↑ up): 12.76↑ | KNAT1 fold change (BA 1.0 μM, 1 h, OE1, ↓ down): 2.01↓ | KNAT1 fold change (BA 1.0 μM, 1 h, OE12, ↓ down): 2.16↓ | KNAT1 fold change (BA 1.0 μM, 1 h, OE18, ↓ down): 3.92↓ | KNAT1 fold change (BA 1.0 μM, 1 h, Wild type, ↑ up): 4.87↑ | KNAT1 fold change (BA 5.0 μM, 5 min, AS1, ↑ up): 10.98↑ | KNAT1 fold change (BA 5.0 μM, 5 min, AS8, ↑ up): 11.98↑ | KNAT1 fold change (BA 5.0 μM, 5 min, AS21, ↑ up): 12.43↑ | KNAT1 fold change (BA 5.0 μM, 5 min, OE1, ↓ down): 2.19↓ | KNAT1 fold change (BA 5.0 μM, 5 min, OE12, ↓ down): 2.87↓ | KNAT1 fold change (BA 5.0 μM, 5 min, OE18, ↓ down): 3.45↓ | KNAT1 fold change (BA 5.0 μM, 5 min, Wild type, ↑ up): 5.52↑ | KNAT1 fold change (BA 5.0 μM, 15 min, AS1, ↑ up): 11.01↑ | KNAT1 fold change (BA 5.0 μM, 15 min, AS8, ↑ up): 12.07↑ | KNAT1 fold change (BA 5.0 μM, 15 min, AS21, ↑ up): 12.54↑ | KNAT1 fold change (BA 5.0 μM, 15 min, OE1, ↓ down): 2.01↓ | KNAT1 fold change (BA 5.0 μM, 15 min, OE12, ↓ down): 2.62↓ | KNAT1 fold change (BA 5.0 μM, 15 min, OE18, ↓ down): 3.18↓ | KNAT1 fold change (BA 5.0 μM, 15 min, Wild type, ↑ up): 5.69↑ | KNAT1 fold change (BA 5.0 μM, 30 min, AS1, ↑ up): 11.23↑ | KNAT1 fold change (BA 5.0 μM, 30 min, Wild type, ↑ up): 5.89↑ | KNAT1 transcripts, dose dependence (BA 0.01-5 μM pulse, 5 min-1 h): dose-dependent increase
